In patent US5494933A, “Treatment” (Beecham-Wuelfing GmbH & Co. KG, priority 1986, dated 1996):

What was measured:
coronary spasm = experiment: Vasopressin test in anaesthetized rats (coronary vasodilating activity, coronary spasm); assay type: in vivo, rat; settings: 0.6 g/kg i.d., vasopressin (Lysopressin) 1 I.U./kg i.v.
Experimental: 1. Coronary Vasodilating activity
a) Vasopressin test in anaesthetized rats
Vasopressin (Lysopressin: 1 I.U./kg) was administered intravenously in order to provoke coronary spasm (ST-segment elevation in the ECG).
The ability of test compounds to reduce coronary spasm is taken as a measure of their anti-anginal potential in spasm-induced angina pectoris. (Ref. Drug.Res. 33(11), 8,1117-1121 (1983)).

[1] = tested on: heart rate, systolic left ventricular pressure, left ventricular dp/dt max and mean arterial blood pressure; experiment: Haemodynamic profile in anaesthetized rats; assay type: in vivo, rat; settings: for % effect of Dhr 20 on dp/dtmax: left ventricular
From the text: 2. Haemodynamic profile in anaesthetized rats.
The effect of compounds of the invention on heart rate, systolic left ventricular pressure, left ventricular dp/dt max and mean arterial blood pressure was investigated so as to obtain information on the anti-anginal potential of these compounds, by reducing the oxygen demand of the ischaemic heart.
**LVP = systolic left ventricular pressure
***BP = mean arterial blood pressure
^a = i.d. administration

coronary artery = biological target: T1, coronary artery (Sus scrofa, UniProt A0A8W4FNC0); experiment: Pig isolated coronary artery, Ca++-antagonistic activity
T1 construct: Coronary artery spirals were prepared; from tissue; host or cells: pig coronary artery spirals
T1 sequence (A0A8W4FNC0 1-2067): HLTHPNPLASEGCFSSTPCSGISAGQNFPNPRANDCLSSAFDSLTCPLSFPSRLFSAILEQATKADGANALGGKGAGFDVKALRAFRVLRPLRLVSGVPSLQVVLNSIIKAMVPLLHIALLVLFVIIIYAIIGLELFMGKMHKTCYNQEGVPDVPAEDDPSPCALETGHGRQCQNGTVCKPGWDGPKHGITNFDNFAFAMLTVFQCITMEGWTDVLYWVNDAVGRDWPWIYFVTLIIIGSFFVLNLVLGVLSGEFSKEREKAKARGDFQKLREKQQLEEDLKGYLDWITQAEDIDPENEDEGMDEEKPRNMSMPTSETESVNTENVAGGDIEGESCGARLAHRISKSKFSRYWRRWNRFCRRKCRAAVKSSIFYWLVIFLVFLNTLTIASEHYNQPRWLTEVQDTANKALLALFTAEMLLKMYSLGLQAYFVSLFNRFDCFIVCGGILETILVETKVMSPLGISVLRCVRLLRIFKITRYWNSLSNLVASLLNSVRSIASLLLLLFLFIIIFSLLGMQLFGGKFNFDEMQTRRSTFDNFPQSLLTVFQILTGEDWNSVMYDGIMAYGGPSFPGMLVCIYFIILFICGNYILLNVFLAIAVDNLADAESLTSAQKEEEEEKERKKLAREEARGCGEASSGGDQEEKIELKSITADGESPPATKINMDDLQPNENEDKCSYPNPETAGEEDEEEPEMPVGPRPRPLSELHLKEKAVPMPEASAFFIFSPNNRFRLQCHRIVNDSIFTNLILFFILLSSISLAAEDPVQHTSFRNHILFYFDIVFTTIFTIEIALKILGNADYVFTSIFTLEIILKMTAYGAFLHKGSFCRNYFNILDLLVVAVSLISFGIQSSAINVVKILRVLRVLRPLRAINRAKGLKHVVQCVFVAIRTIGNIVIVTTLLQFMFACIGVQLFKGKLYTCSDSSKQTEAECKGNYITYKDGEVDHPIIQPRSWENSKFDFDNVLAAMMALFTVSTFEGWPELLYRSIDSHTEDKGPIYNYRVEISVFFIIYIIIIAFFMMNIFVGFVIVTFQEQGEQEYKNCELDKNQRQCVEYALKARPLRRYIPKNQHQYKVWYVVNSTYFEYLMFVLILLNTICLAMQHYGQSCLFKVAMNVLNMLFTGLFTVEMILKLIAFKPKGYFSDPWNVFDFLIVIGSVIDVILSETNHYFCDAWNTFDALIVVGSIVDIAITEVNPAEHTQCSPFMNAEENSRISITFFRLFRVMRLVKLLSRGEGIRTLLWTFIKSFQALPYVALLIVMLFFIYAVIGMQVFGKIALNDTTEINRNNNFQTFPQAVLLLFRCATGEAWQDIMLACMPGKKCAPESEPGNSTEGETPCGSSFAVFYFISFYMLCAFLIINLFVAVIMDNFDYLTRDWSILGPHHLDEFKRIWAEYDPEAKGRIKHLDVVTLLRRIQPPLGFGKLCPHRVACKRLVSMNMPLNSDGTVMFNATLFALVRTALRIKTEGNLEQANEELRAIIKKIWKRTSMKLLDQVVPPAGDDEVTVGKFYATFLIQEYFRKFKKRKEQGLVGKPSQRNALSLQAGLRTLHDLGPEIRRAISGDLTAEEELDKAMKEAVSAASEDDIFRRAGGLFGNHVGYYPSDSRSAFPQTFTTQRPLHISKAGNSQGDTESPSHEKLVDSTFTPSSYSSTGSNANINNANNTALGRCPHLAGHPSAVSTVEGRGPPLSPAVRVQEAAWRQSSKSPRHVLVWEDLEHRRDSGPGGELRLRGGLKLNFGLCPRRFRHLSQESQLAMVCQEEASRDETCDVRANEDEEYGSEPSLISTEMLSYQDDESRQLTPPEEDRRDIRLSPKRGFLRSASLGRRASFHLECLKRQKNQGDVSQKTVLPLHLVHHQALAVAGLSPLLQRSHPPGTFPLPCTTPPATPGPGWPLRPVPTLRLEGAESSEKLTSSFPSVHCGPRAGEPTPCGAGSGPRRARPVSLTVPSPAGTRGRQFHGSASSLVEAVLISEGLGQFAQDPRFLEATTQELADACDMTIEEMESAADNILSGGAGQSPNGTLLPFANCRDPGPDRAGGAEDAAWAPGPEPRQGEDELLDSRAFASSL
Experimental: b) Pig isolated coronary artery
Coronary artery spirals were prepared and in lengths from 1.5 to 2 cm were incubated at 32.5° in Ca^++ -free Krebs-Henseleit solution containing tris buffer and 60 mM KCl. Ca^++ in concentrations ranging from 0.1 mM-7 mM was given every 10 min to produce a control dose-responsecurve. Following a wash out circle using EDTA, either placebo or drug was administered, and an equilibration time of 30 minutes allowed before the second dose-response curve was made. Dose-ratios were calculated at ED50 -levels, from these the log KB was calculated.

[2] = anaesthetized rat, i.v., at Dhr 20

| Structure (SMILES) | i.v. duration of action on heart rate ([1]; anaesthetized rat, i.v.) [min] | % effect of Dhr 20 on dp/dtmax [1, 2] [%] | other results |
| --- | --- | --- | --- |
| COc1ccc(CCN(C)CCCN(Cc2ccccc2[N+](=O)[O-])c2ccc(OC)c(OC)c2)cc1OC [Example E1, (N-[3,4-Dimethoxyphenyl]-N-3-[N'-2-(3,4-dimethoxyphenyl)-ethyl-N'-methylamino]-propyl)-(2-nitro)-benzylamine] | 10 | -3 | activity against coronary spasm (ST-segment elevation in the ECG) (coronary spasm): active against coronary spasm |
| COc1ccc(CCN(C)CCCN(Cc2ccccc2)c2ccc(OC)c(OC)c2)cc1OC [Example E4, (N-[3,4-Dimethoxyphenyl]-N-3-[N'-2-(3,4-dimethoxyphenyl)-ethyl-N'-methylamino]-propyl)-benzylamine] | 10 | -12 | Kb (coronary artery; pig coronary artery spirals, 60 mM KCl, Ca++ 0.1 mM-7 mM, 30 min equilibration, dose-ratios at ED50 levels): 1410 nM; Ca++-antagonistic activity in coronary artery in vitro (coronary artery; pig coronary artery, from log KB): moderate to medium |
| COc1ccc(CCN(C)CCCN(Cc2ccc([N+](=O)[O-])cc2)c2ccc(OC)c(OC)c2)cc1OC [Example E6, (N-[3,4-Dimethoxyphenyl]-N-3-[N'-2-(3,4-dimethoxyphenyl)-ethyl-N'-methylamino]-propyl)-(4-nitro)-benzylamine] | 60 | -5 | – |
| CCCCC(=O)N(CCCN(C)CCc1ccc(OC)c(OC)c1)c1ccc(OC)c(OC)c1 [Example E12, (N-[3,4-Dimethoxyphenyl]-N-3-[N'-2-(3,4-dimethoxyphenyl)-ethyl-N'-methylamino]-propyl)-pentanoic acid amide] | 10 | -6 | – |
| COc1ccc(CCN(C)CCCN(C(=O)CCc2ccccc2)c2ccc(OC)c(OC)c2)cc1OC [Example E15, (N-[3,4-Dimethoxyphenyl]-N-3-[N'-2-(3,4-dimethoxyphenyl)-ethyl-N'-methylamino]-propyl)-(3-phenyl)propanoic acid amide] | 10 | -7 | – |
| CCCCOC(=O)N(CCCN(C)CCc1ccc(OC)c(OC)c1)c1ccc(OC)c(OC)c1 [Example E24, (N-[3,4-Dimethoxyphenyl]-N-3-[N'-2-(3,4-dimethoxyphenyl)-ethyl-N'methylamino]-propyl)-n-butyl-urethane] | 10 | -8 | – |
| COc1ccc(CCN(C)CCCN(C(=O)Oc2ccccc2)c2ccc(OC)c(OC)c2)cc1OC [Example E25, (N-[3,4-Dimethoxyphenyl]-N-3-[N'-2-(3,4-dimethoxyphenyl)-ethyl-N'-methylamino]-propyl)-phenyl-urethane] | 10 | -2 | Dhr 20 (i.v. dose which reduces heart rate by ca. 20%) ([1]; anaesthetized rat, i.v.): 0.8; % effect of Dhr 20 on BP (mean arterial blood pressure) [1, 2]: -14%; % effect of Dhr 20 on LVP (systolic left ventricular pressure) [1, 2]: -10% |
| CCCNC(=O)N(CCCN(C)CCc1ccc(OC)c(OC)c1)c1ccc(OC)c(OC)c1 [Example E27, (N-[3,4-Dimethoxyphenyl]-N-3-[N'-2-(3,4-dimethoxyphenyl)-ethyl-N'-methylamino]-propyl)-N"-n-propyl-urea] | 5 to 10 | -1 | – |
| COc1ccc(CCN(C)CCCN(C(=O)NCc2ccccc2)c2ccc(OC)c(OC)c2)cc1OC [Example E30, (N-[3,4-Dimethoxyphenyl]-N-3-[N'-2-(3,4-dimethoxyphenyl)-ethyl-N'-methylamino]-propyl)-N"-benzylurea] | 10 | -20 | – |
| COc1ccc(CCN(C)CCN(C(=O)NC(C)c2ccccc2)c2ccc(OC)c(OC)c2)cc1OC (stereo not shown) [Example E32] | 10 | -3 | – |
| CCCCCN(CCCN(C)CCc1ccc(OC)c(OC)c1)c1ccc(OC)c(OC)c1 [Example E34, (N-[3,4-Dimethoxyphenyl]-N-3-[N'-2-(3,4-dimethoxyphenyl)-ethyl-N'-methylamino]-propyl)-n-pentylamine] | 5 to 10 | -10 | – |
| COc1ccc(CCN(C)CCCN(c2ccc(OC)c(OC)c2)c2ncc([N+](=O)[O-])cc2[N+](=O)[O-])cc1OC [Example E44, (N-[3,4-Dimethoxyphenyl]-N-3-[N'-2-(3,4-dimethoxyphenyl)-ethyl-N'-methyl-amino]-propyl)-3,5-dinitro-2-amino-pyridine] | 10 | -8 | Dhr 20 (i.v. dose which reduces heart rate by ca. 20%) ([1]; anaesthetized rat, i.v.): 3.2; % effect of Dhr 20 on BP (mean arterial blood pressure) [1, 2]: -10%; % effect of Dhr 20 on LVP (systolic left ventricular pressure) [1, 2]: -6% |
| COc1ccc(CCN(C)CCCN(C(=O)c2ccc([N+](=O)[O-])cc2)c2ccc(OC)c(OC)c2)cc1OC [Example E50, (N-[3,4-Dimethoxyphenyl]-N-3-[N'-2-(3,4-dimethoxyphenyl)-ethyl-N'-methyl-amino]-propyl)-4-nitrobenzamide] | – | – | % effect of Dhr 20 on BP (mean arterial blood pressure) ([1]; rat, in vivo): -6%; duration of action on heart rate ([1]; rat, in vivo): > 90 min; % effect of Dhr 20 on BP (mean arterial blood pressure) ([1]; rat, in vivo, iv): -1%; % effect of Dhr 20 on LVP (systolic left ventricular pressure) ([1]; rat, in vivo, iv): -1% |
